Experiments:
[1] = system: Dengue virus 2 (DENV2, ATCC VR-1584); assay: DENV2 infection in AG129 mice: clinical signs, body and spleen weights; format: in vivo; conditions: 100 mg/kg, SC; n = 9
Method: (§1) The purpose of this study was to determine the efficacy of the compounds on Dengue virus 2 (DENV2, ATCC® VR-1584™) infection in AG129 mice.
(§2) Six groups of AG129 mice, 6-8 weeks old, with 9 mice per group were used to test compounds according to table 3.1.1. Animal room environment was monitored for temperature and relative humidity twice per day. The temperature range was 22° C.±3° C. and humidity range was 30-70%. The animals were provided with 12 hours light and 12 hours darkness. Feed and drinking water was provided ad libitum. Compounds 43 and 113 were tested.
C6/36 (ATCC(CRL-1660) cell lines were grown in RPMI 1640 medium (Gibco/HiMedia) plus 5% fetal bovine serum at 28° C. Dengue virus type 2 (ATCC®VR-1584™) New Guinea C(NGC, DENV2) was passaged in BHK-21 cell cultures to make sufficient stocks for assay. Virus titer was determined by TCID50 method using BHK-21 cells.
(§3) Twenty-four hours post treatment (Day 0), animals were injected intraperitoneally (IP) with 0.2 ml of virus suspension (˜5×10^7/animal).
The vehicle for tested compounds was 5% DMSO+95% (20%) hydroxypropylcyclodextrin. […] Formulations were prepared daily immediately before dosing.
(§4) Administration of compounds and vehicle to animals started twenty four hours before infection (Day −1). Animals were treated daily (From Day-1 to day 4) as per the experimental design shown below in table 3.1.5. Animals were monitored for general clinical signs, morbidity and mortality. Body weights were measured daily.
Animals were sacrificed on day 5 post infection with Isoflurane followed by an overdose of CO2. Spleens were excised, measured and weighed.
(§5) The Mean±SD Log10PFU/ml, relative Mean±SD spleen weight, Mean±SD biomarker concentrations were estimated in each group. Significant differences between group means and control were analyzed by one-way ANOVA, followed by a Dunnett's multiple comparison test, using GraphPad Prism 5 at 95% confidence levels. A p value of <0.05 was considered as significant.

[2] = system: Dengue virus 2 (DENV2, ATCC VR-1584); assay: DENV2 infection in AG129 mice: viral load in plasma (plaque assay); format: in vivo; conditions: 100 mg/kg, SC
Method: as §1, §2, §3, §4
Blood was collected on days-1, 0, 1, 2, 3, 4 to 5.
BHK-21 cells were cultured to approximately 80% confluency in 24-well plates (NUNC, NY, USA). Plasma samples were 10-fold serially diluted in RPMI 1640 (GIBCO). BHK-21 monolayers were infected with 100 μl of each virus dilution. After incubation at 37° C. and 5% CO2 atmosphere for one hour with rocking at 15 min intervals, the medium was decanted and 1 ml of 1% (w/v)carboxymethyl cellulose in RPMI supplemented with 2% FCS was added to each well. After four days incubation at 37° C. in 5% CO2, the cells were fixed with 4% paraformaldehyde and stained for 30 min with […] of 1% crystal violet dissolved in 37% formaldehyde. After thorough rinsing with water, plates were dried and the plaques were scored visually.
as §5

NC(=O)c1ncn([C@@H]2O[C@H](CO)[C@@H](O)[C@H]2O)n1 [Ribavirin, ribavirin, reference compound]
Body weights of mice at the end of the study (Mean ± SD) [1]: 20.11 ± 1.05 g
Mean + SD Log10PFU/ml Plasma ([2]; Day 2): 3.34 ± 0.29 Log10PFU/ml
Mean + SD Log10PFU/ml Plasma ([2]; Day 5): 3.50 ± 0.13 Log10PFU/ml

From patent US20250059231A1, “Protease inhibitors” (priority 2021, published 2025)
